Experiments:
Format in all cases: cell-based
MYB mRNA [1] = experiment: Gene panel canonical junction qPCR assay, decrease in CJ mRNA, Table 3; settings: decrease in canonical junction (CJ) mRNA, gene panel qPCR, Table 3
Procedure, shortened: (§1)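 Cells: A673 or K562; 24 h compound exposure, 37 °C, 5% CO2; 11-pt 3-fold series from 10 uM final; DMSO ≤0.25%. Lysate → cDNA → qPCR with junction-spanning primers/probe for CJ transcript. ΔCt vs housekeeper, ΔΔCt vs DMSO, 2^(−ΔΔCt), % response, 4PL → IC50.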

SMN2 mRNA = experiment: as above; settings: decrease in canonical junction (CJ) mRNA, gene panel qPCR, Table 3
Procedure, shortened: as §1

HTT mRNA [2] = experiment: as above; settings: decrease in canonical junction (CJ) mRNA, gene panel qPCR, Table 3
Procedure, shortened: as §1

MYB mRNA [3] = experiment: Splicing RT-qPCR assay (THP), Table 2A; settings: Table 2A (THP); for AC50: AJ mRNA increase, read-out: MYB AJ (increase in alternative junction mRNA, AC50); for IC50: CJ mRNA decrease, read-out: MYB CJ (decrease in canonical junction mRNA, IC50)
[4] = system: SH-SY5Y (human neuroblastoma) cells; experiment: Cell viability, Cell Titer Glo 2.0 assay; settings: read-out: Viability SHSY5Y.3 GI50
Procedure, shortened: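 CellTiter-Glo 2.0 luminescence read-out after 72 h compound exposure (37 °C, 5% CO2); medium-only wells as blank. DMSO 0.1% final.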

HTT mRNA [5] = experiment: Splicing RT-qPCR assay (THP), Table 2A; settings: Table 2A (THP); for AC50: AJ mRNA increase, read-out: HTT AJ (increase in alternative junction mRNA, AC50); for IC50: CJ mRNA decrease, read-out: HTT CJ (decrease in canonical junction mRNA, IC50)

CCNC1CCN(c2ccc(C(=O)Nc3cc(F)c4nc(C)cn4c3)c3nnn(C)c23)CC1 [Compound 199, 7-[4-(ethylamino)-1-piperidyl]-N-(8-fluoro-2-methylimidazo[1,2-a]-pyridin-6-yl)-1-methylbenzotriazole-4-carboxamide]
IC50 (MYB mRNA [1]): 100 to 1000 nM
IC50 (SMN2 mRNA): < 100 nM
IC50 (HTT mRNA [2]): > 10000 nM
AC50 (MYB mRNA [3]): 100 to 1000 nM
IC50 (MYB mRNA [3]): 100 to 1000 nM
GI50 [4]: 1000 to 10000 nM
AC50 (HTT mRNA [5]): > 10000 nM
IC50 (HTT mRNA [5]): > 10000 nM

CCNC1CCN(c2ccc(C(=O)Nc3cc(F)c4nc(C)oc4c3)c3nn(C)cc23)CC1 [Compound 200, 4-(4-(ethylamino)piperidin-1-yl)-N-(4-fluoro-2-methylbenzo[d]-oxazol-6-yl)-2-methyl-2H-indazole-7-carboxamide]
IC50 (MYB mRNA [1]): 100 to 1000 nM
IC50 (SMN2 mRNA): < 100 nM
IC50 (HTT mRNA [2]): 100 to 1000 nM
AC50 (MYB mRNA [3]): < 100 nM
IC50 (MYB mRNA [3]): < 100 nM
GI50 [4]: 100 to 1000 nM
AC50 (HTT mRNA [5]): 1000 to 10000 nM
IC50 (HTT mRNA [5]): 100 to 1000 nM

CCNC1CCN(c2ccc(C(=O)Nc3cc(F)c4nc(CC)cn4c3)c3nn(C)cc23)CC1 [Compound 201, 4-[4-(ethylamino)-1-piperidyl]-N-(2-ethyl-8-fluoro-imidazo[1,2-a]pyridin-6-yl)-2-methyl-indazole-7-carboxamide]
IC50 (MYB mRNA [1]): 1000 to 10000 nM
IC50 (SMN2 mRNA): 100 to 1000 nM
IC50 (HTT mRNA [2]): 1000 to 10000 nM
AC50 (MYB mRNA [3]): 1000 to 10000 nM
IC50 (MYB mRNA [3]): 1000 to 10000 nM
GI50 [4]: 1000 to 10000 nM
AC50 (HTT mRNA [5]): 1000 to 10000 nM
IC50 (HTT mRNA [5]): 1000 to 10000 nM

CCNC1CCN(c2ccc(C(=O)Nc3cc(F)c4nc(CF)cn4c3)c3nn(C)cc23)CC1 [Compound 202, 4-[4-(ethylamino)-1-piperidyl]-N-[8-fluoro-2-(fluoromethyl)imidazo[1,2-a]pyridin-6-yl]-2-methyl-indazole-7-carboxamide]
IC50 (MYB mRNA [1]): < 100 nM
IC50 (SMN2 mRNA): < 100 nM
IC50 (HTT mRNA [2]): 1000 to 10000 nM
AC50 (MYB mRNA [3]): < 100 nM
IC50 (MYB mRNA [3]): < 100 nM
GI50 [4]: 100 to 1000 nM
AC50 (HTT mRNA [5]): 100 to 1000 nM
IC50 (HTT mRNA [5]): 1000 to 10000 nM

Cc1cn2cc(NC(=O)c3ccc(N4CCC(NC5CC56CC6)CC4)c4cn(C)nc34)cc(F)c2n1 (stereo not drawn) [Compound 203, N-(8-fluoro-2-methyl-imidazo[1,2-a]-pyridin-6-yl)-2-methyl-4-[4-(spiro[2.2]pentan-2-ylamino)-1-piperidyl] indazole-7-carboxamide]
IC50 (MYB mRNA [1]): < 100 nM
IC50 (SMN2 mRNA): < 100 nM
IC50 (HTT mRNA [2]): 100 to 1000 nM
AC50 (MYB mRNA [3]): < 100 nM
IC50 (MYB mRNA [3]): < 100 nM
GI50 [4]: 100 to 1000 nM
AC50 (HTT mRNA [5]): 100 to 1000 nM
IC50 (HTT mRNA [5]): 100 to 1000 nM

Cc1cn2cc(NC(=O)c3ccc(N4CCC(NC5CC5C)CC4)c4cn(C)nc34)cc(F)c2n1 (stereo not drawn) [Compound 204, N-(8-fluoro-2-methyl-imidazo[1,2-a]pyridin-6-yl)-2-methyl-4-[4-[(2-methyl-cyclopropyl)amino]-1-piperidyl] indazole-7-carboxamide]
IC50 (MYB mRNA [1]): < 100 nM
IC50 (SMN2 mRNA): < 100 nM
IC50 (HTT mRNA [2]): 100 to 1000 nM
AC50 (MYB mRNA [3]): < 100 nM
IC50 (MYB mRNA [3]): < 100 nM
GI50 [4]: 100 to 1000 nM
AC50 (HTT mRNA [5]): 100 to 1000 nM
IC50 (HTT mRNA [5]): 100 to 1000 nM

Cc1cn2cc(NC(=O)c3ccc(N4CCC(NC5CC5(C)C)CC4)c4cn(C)nc34)cc(F)c2n1 (stereo not drawn) [Compound 205, 4-(4-((2,2-dimethylcyclopropyl)amino)piperidin-1-yl)-N-(8-fluoro-2-methylimidazo[1,2-a]pyridin-6-yl)-2-methyl-2H-indazole-7-carboxamide]
IC50 (MYB mRNA [1]): < 100 nM
IC50 (SMN2 mRNA): < 100 nM
IC50 (HTT mRNA [2]): 1000 to 10000 nM
AC50 (MYB mRNA [3]): < 100 nM
IC50 (MYB mRNA [3]): < 100 nM
GI50 [4]: 100 to 1000 nM
AC50 (HTT mRNA [5]): 100 to 1000 nM
IC50 (HTT mRNA [5]): 100 to 1000 nM

CCNC1CCN(c2ccc(C(=O)Nc3cn4cc(C)nc4c(OC)n3)c3nn(C)cc23)CC1 [Compound 206, 4-[4-(ethylamino)-1-piperidyl]-N-(8-methoxy-2-methyl-imidazo[1,2-a]pyrazin-6-yl)-2-methyl-indazole-7-carboxamide]
IC50 (MYB mRNA [1]): < 100 nM
IC50 (SMN2 mRNA): < 100 nM
IC50 (HTT mRNA [2]): 100 to 1000 nM
AC50 (MYB mRNA [3]): < 100 nM
IC50 (MYB mRNA [3]): < 100 nM
GI50 [4]: 100 to 1000 nM
AC50 (HTT mRNA [5]): 100 to 1000 nM
IC50 (HTT mRNA [5]): 100 to 1000 nM

COc1c(NC(=O)c2c(F)cc(N3CCC(NC4CC4)CC3)c3cn(C)nc23)cn2cc(C)nc2c1F [Compound 207, 4-[4-(cyclopropylamino)-1-piperidyl]-6-fluoro-N-(8-fluoro-7-methoxy-2-methyl-imidazo[1,2-a]pyridin-6-yl)-2-methyl-indazole-7-carboxamide]
IC50 (MYB mRNA [1]): < 100 nM
IC50 (SMN2 mRNA): < 100 nM
IC50 (HTT mRNA [2]): < 100 nM
AC50 (MYB mRNA [3]): < 100 nM
IC50 (MYB mRNA [3]): < 100 nM
GI50 [4]: < 100 nM
AC50 (HTT mRNA [5]): < 100 nM
IC50 (HTT mRNA [5]): < 100 nM
